# Measurements published in PubChem BioAssay AID1259411 (Chemical Carcinogenesis Research Information System (CCRIS), 2018).
# Activity calls are given as the source filed them. How the calls were made is not given here.
# System: rodent carcinogenicity bioassays, tumor incidence
# Assay: CCRIS carcinogenicity studies
# Conditions: Route: INHALATION
# How it was run: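 Archive of carcinogenicity, mutagenicity, tumor promotion and tumor inhibition results drawn from journals, NCI reports and other sources, expert-reviewed; covers 1985-2011 and is no longer updated.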
structure (smiles),measurement,setting,value
C=CC=C,carcinogen call,"Species: MOUSE, Strain/Sex: B6C3F1/FEMALE, Dose: 0, 6.25, 20, 62.5, 200, 625 PPM 6 HR/D 5 D/WK FOR 2 YR (STUDY DURATION: 2 YR), Dose: 0, 6.25, 20, 62.5, 200, 625 PPM 6 HR/D 5 D/WK FOR 2 YR (STUDY DURATION: 2 YR), Tumor Site: Type of Lesion: HARDERIAN GLAND: ADENOMA OR ADENOCARCINOMA, LIVER: HEPATOCELLULAR CARCINOMA, MAMMARY GLAND: ADENOCARCINOMA, OVARIES: GRA, Tumor Site: Type of Lesion: HARDERIAN GLAND: ADENOMA OR ADENOCARCINOMA, LIVER: HEPATOCELLULAR CARCINOMA, MAMMARY GLAND: ADENOCARCINOMA, OVARIES: GRA",active; positive
same,carcinogen call,"Species: MOUSE, Strain/Sex: B6C3F1/FEMALE, Dose: 0, 6.25, 20, 62.5, 200, 625 PPM 6 HR/D 5 D/WK FOR 2 YR (STUDY DURATION: 2 YR), Dose: 0, 6.25, 20, 62.5, 200, 625 PPM 6 HR/D 5 D/WK FOR 2 YR (STUDY DURATION: 2 YR), Tumor Site: Type of Lesion: HEMATOPOIETIC SYSTEM: LYMPHOCYTIC LYMPHOMA, LYMPHOMA, BLOOD VESSELS: HEMANGIOSARCOMA, LUNG: ALVEOLAR/BRONCHIOLAR TUMOR;, Tumor Site: Type of Lesion: HEMATOPOIETIC SYSTEM: LYMPHOCYTIC LYMPHOMA, LYMPHOMA, BLOOD VESSELS: HEMANGIOSARCOMA, LUNG: ALVEOLAR/BRONCHIOLAR TUMOR",active; positive
same,carcinogen call,"Species: MOUSE, Strain/Sex: B6C3F1/FEMALE, Dose: 0, 6.25, 20, 62.5, 200, 625 PPM 6 HR/D 5 D/WK FOR 103 WK (STUDY DURATION: 2 YR), Dose: 0, 6.25, 20, 62.5, 200, 625 PPM 6 HR/D 5 D/WK FOR 103 WK (STUDY DURATION: 2 YR), Tumor Site: Type of Lesion: HEART: HEMANGIOSARCOMA, LUNG: ALVEOLAR/BRONCHIOLAR ADENOMA, ADENOCARCINOMA OR CARCINOMA, FORESTOMACH: SQUAMOUS CELL PAPI, Tumor Site: Type of Lesion: HEART: HEMANGIOSARCOMA, LUNG: ALVEOLAR/BRONCHIOLAR ADENOMA, ADENOCARCINOMA OR CARCINOMA, FORESTOMACH: SQUAMOUS CELL PAPI",active; positive
same,carcinogen call,"Species: MOUSE, Strain/Sex: B6C3F1/FEMALE, Dose: 0, 6.25, 20, 62.5, 200 PPM 6 HR/D 5 D/WK FOR 65 WK (STUDY DURATION: 104 WK), Dose: 0, 6.25, 20, 62.5, 200 PPM 6 HR/D 5 D/WK FOR 65 WK (STUDY DURATION: 104 WK), Tumor Site: Type of Lesion: HEART: HEMANGIOSARCOMA, LUNG: ALVEOLAR/BRONCHIOLAR TUMOR, MAMMARY GLAND: ADENOCARCINOMA, OVARY: GRANULOSA CELL TUMOR, Tumor Site: Type of Lesion: HEART: HEMANGIOSARCOMA, LUNG: ALVEOLAR/BRONCHIOLAR TUMOR, MAMMARY GLAND: ADENOCARCINOMA, OVARY: GRANULOSA CELL TUMOR",active; positive
same,carcinogen call,"Species: MOUSE, Strain/Sex: B6C3F1/FEMALE, Dose: 0, 1000, 5000, 10000 PPM FOR 2 HR ONCE (STUDY DURATION: 2 YR), Dose: 0, 1000, 5000, 10000 PPM FOR 2 HR ONCE (STUDY DURATION: 2 YR)",inactive; negative
same,carcinogen call,"Species: MOUSE, Strain/Sex: B6C3F1/FEMALE, Dose: 625, 1250 PPM 6 HR/D 5/WK FOR 61 WK, Tumor Site: Type of Lesion: LYMPHATIC SYSTEM: MALIGNANT LYMPHOMA, LUNG: ALVEOLAR/BRONCHIOLAR ADENOMA, CARCINOMA, MYOCARDIUM: HEMANGIOSARCOMA, FOREST, Tumor Site: Type of Lesion: LYMPHATIC SYSTEM: MALIGNANT LYMPHOMA, LUNG: ALVEOLAR/BRONCHIOLAR ADENOMA, CARCINOMA, MYOCARDIUM: HEMANGIOSARCOMA, FOREST",active; positive
same,carcinogen call,"Species: MOUSE, Strain/Sex: B6C3F1/MALE, Dose: 0, 6.25, 20, 62.5, 200, 625 PPM 6 HR/D 5 D/WK FOR 2 YR (STUDY DURATION: 2 YR), Dose: 0, 6.25, 20, 62.5, 200, 625 PPM 6 HR/D 5 D/WK FOR 2 YR (STUDY DURATION: 2 YR), Tumor Site: Type of Lesion: HEMATOPOIETIC SYSTEM: LYMPHOCYTIC LYMPHOMA, LYMPHOMA, BLOOD VESSELS: HEMANGIOSARCOMA, LUNG: ALVEOLAR/BRONCHIOLAR TUMOR;, Tumor Site: Type of Lesion: HEMATOPOIETIC SYSTEM: LYMPHOCYTIC LYMPHOMA, LYMPHOMA, BLOOD VESSELS: HEMANGIOSARCOMA, LUNG: ALVEOLAR/BRONCHIOLAR TUMOR",active; positive
same,carcinogen call,"Species: MOUSE, Strain/Sex: B6C3F1/MALE, Dose: 0, 6.25, 20, 62.5, 200, 625 PPM 6 HR/D 5 D/WK FOR 2 YR (STUDY DURATION: 2 YR), Dose: 0, 6.25, 20, 62.5, 200, 625 PPM 6 HR/D 5 D/WK FOR 2 YR (STUDY DURATION: 2 YR), Tumor Site: Type of Lesion: PREPUTIAL GLAND: ADENOMA OR CARCINOMA, LIVER: HEPATOCELLULAR TUMOR, HARDERIAN GLAND: TUMOR, Tumor Site: Type of Lesion: PREPUTIAL GLAND: ADENOMA OR CARCINOMA, LIVER: HEPATOCELLULAR TUMOR, HARDERIAN GLAND: TUMOR",active; positive
same,carcinogen call,"Species: MOUSE, Strain/Sex: B6C3F1/MALE, Dose: 0, 6.25, 20, 62.5, 200, 625 PPM 6 HR/D 5 D/WK FOR 103 WK (STUDY DURATION: 2 YR), Dose: 0, 6.25, 20, 62.5, 200, 625 PPM 6 HR/D 5 D/WK FOR 103 WK (STUDY DURATION: 2 YR), Tumor Site: Type of Lesion: HEART: HEMANGIOSARCOMA, LUNG: ALVEOLAR/BRONCHIOLAR ADENOMA, ADENOCARCINOMA OR CARCINOMA, FORESTOMACH: SQUAMOUS CELL PAPI, Tumor Site: Type of Lesion: HEART: HEMANGIOSARCOMA, LUNG: ALVEOLAR/BRONCHIOLAR ADENOMA, ADENOCARCINOMA OR CARCINOMA, FORESTOMACH: SQUAMOUS CELL PAPI",active; positive
same,carcinogen call,"Species: MOUSE, Strain/Sex: B6C3F1/MALE, Dose: 0, 6.25, 20, 62.5, 200 PPM, 6 HR/D 5 D/WK FOR 65 WK (STUDY DURATION: 104 WK), Dose: 0, 6.25, 20, 62.5, 200 PPM, 6 HR/D 5 D/WK FOR 65 WK (STUDY DURATION: 104 WK), Tumor Site: Type of Lesion: HEART: HEMANGIOSARCOMA, LUNG: ALVEOLAR/BRONCHIOLAR TUMOR, HARDERIAN GLAND: ADENOMA, Tumor Site: Type of Lesion: HEART: HEMANGIOSARCOMA, LUNG: ALVEOLAR/BRONCHIOLAR TUMOR, HARDERIAN GLAND: ADENOMA",active; positive
same,carcinogen call,"Species: MOUSE, Strain/Sex: B6C3F1/MALE, Dose: 0, 200 PPM 6 HR/D 5 D/WK FOR 40 WK, 625 PPM FOR 13 WK, 312 PPM FOR 52 WK OR 625 PPM FOR 26 WK FOLLOWED BY CONTROL CHAMBE, Dose: 0, 200 PPM 6 HR/D 5 D/WK FOR 40 WK, 625 PPM FOR 13 WK, 312 PPM FOR 52 WK OR 625 PPM FOR 26 WK FOLLOWED BY CONTROL CHAMBE, Tumor Site: Type of Lesion: HEART: HEMANGIOSARCOMA, LUNG: ALVEOLAR/BRONCHIOLAR ADENOMA, ADENOCARCINOMA OR CARCINOMA, FORESTOMACH: SQUAMOUS CELL PAPI, Tumor Site: Type of Lesion: HEART: HEMANGIOSARCOMA, LUNG: ALVEOLAR/BRONCHIOLAR ADENOMA, ADENOCARCINOMA OR CARCINOMA, FORESTOMACH: SQUAMOUS CELL PAPI",active; positive
same,carcinogen call,"Species: MOUSE, Strain/Sex: B6C3F1/MALE, Dose: 0, 1000, 5000, 10000 PPM FOR 2 HR ONCE (STUDY DURATION: 2 YR), Dose: 0, 1000, 5000, 10000 PPM FOR 2 HR ONCE (STUDY DURATION: 2 YR)",inactive; negative
same,carcinogen call,"Species: MOUSE, Strain/Sex: B6C3F1/MALE, Dose: 625, 1250 PPM 6 HR/D 5/WK FOR 60 WK, Tumor Site: Type of Lesion: LYMPHATIC SYSTEM: MALIGNANT LYMPHOMA, LUNG: ALVEOLAR/BRONCHIOLAR ADENOMA, CARCINOMA, MYOCARDIUM: HEMANGIOSARCOMA, FOREST, Tumor Site: Type of Lesion: LYMPHATIC SYSTEM: MALIGNANT LYMPHOMA, LUNG: ALVEOLAR/BRONCHIOLAR ADENOMA, CARCINOMA, MYOCARDIUM: HEMANGIOSARCOMA, FOREST",active; positive
same,carcinogen call,"Species: RAT, Strain/Sex: SPRAGUE-DAWLEY/FEMALE, Dose: 0, 1000, 8000 PPM 6 HR/D 5 D/WK FOR 105 WK (STUDY DURATION: 105 WK), Dose: 0, 1000, 8000 PPM 6 HR/D 5 D/WK FOR 105 WK (STUDY DURATION: 105 WK), Tumor Site: Type of Lesion: UTERUS: SARCOMA, MAMMARY GLAND: ADENOMA, ZYMBAL GLAND: CARCINOMA, THYROID GLAND: FOLLICULAR CELL ADENOMA, Tumor Site: Type of Lesion: UTERUS: SARCOMA, MAMMARY GLAND: ADENOMA, ZYMBAL GLAND: CARCINOMA, THYROID GLAND: FOLLICULAR CELL ADENOMA",active; positive
same,carcinogen call,"Species: RAT, Strain/Sex: SPRAGUE-DAWLEY/MALE, Dose: 0, 1000, 8000 PPM 6 HR/D 5 D/WK FOR 111 WK (STUDY DURATION: 111 WK), Dose: 0, 1000, 8000 PPM 6 HR/D 5 D/WK FOR 111 WK (STUDY DURATION: 111 WK), Tumor Site: Type of Lesion: PANCREAS: ACINAR CELL ADENOMA, TESTES: LEYDIG CELL TUMOR",active; positive
